Several values for one entry are separate records, joined by “and”; a condition that tells them apart may be missing. Equal values may be shown once. Read-outs that look alike come from different tables or passages of the source.
How the values were obtained:
[1] = tested on: P. falciparum IPC5202 (ARM-R); assay: microbe, parasite or virus in culture; format: cell-based
Description: The strains D10 and 3D7 (CQ-Sensitive), and V1-S (CQ, pyrimethamine and cycloguanil resistant), K1 (CQ and PYR resistant), W2 and FCR3 (CQ-Resistant), TM90C2A (CQ, MQ, PYR and ATQ resistant) and IPC 5202 (MR4-1240, artemisinin-resistant, K13 mutation, and R539T) of Pf were cultured in vitro as described by Trager and Jensen with minor modifications. Briefly, parasites were maintained at 5% hematocrit (human type A-positive red blood cells) in RPMI 1640 (EuroClone, S.p.A. Milan, Italy) medium with the addition of 10% heat inactivate human serum or 1% AlbuMax (In vitrogen, Milan, Italy), 20 mM Hepes and 2 mM glutamine (Euroclone), at 37 °C in a standard gas mixture consisting of 1–3% O2, 5% CO2, and 92–94% N2.
Compounds were dissolved in either water or DMSO and then diluted with medium to achieve the required concentrations (final non-toxic DMSO concentration <1%). Asynchronous cultures of Pf with parasitaemia of 1–1.5% and 1% final hematocrit were aliquoted into 96-well flat-bottom microplates (Corning, Glendale, AZ, USA) with serial dilutions of test compounds and incubated for 72 h at 37 °C. Parasite growth was determined spectrophotometrically (OD650) by measuring the activity of the parasite lactate dehydrogenase (pLDH) according to a modified version of the method of Makler in control and drug-treated cultures.

[2] = tested on: P. falciparum V1-S (CQ-R); assay: In vitro antimalarial activity, [3H]-hypoxanthine incorporation (LSHTM); format: cell-based; details: Plasmodium falciparum; 72 h, [3H]-hypoxanthine incorporation, mean of 3 experiments; read-out: P. falciparum IC50 nM, V1-S (CQ-R)
[3] = molecular target: CYP2C9 (Homo sapiens, UniProt P11712); assay: in vitro
Chain of CYP2C9 (P11712 whole entry): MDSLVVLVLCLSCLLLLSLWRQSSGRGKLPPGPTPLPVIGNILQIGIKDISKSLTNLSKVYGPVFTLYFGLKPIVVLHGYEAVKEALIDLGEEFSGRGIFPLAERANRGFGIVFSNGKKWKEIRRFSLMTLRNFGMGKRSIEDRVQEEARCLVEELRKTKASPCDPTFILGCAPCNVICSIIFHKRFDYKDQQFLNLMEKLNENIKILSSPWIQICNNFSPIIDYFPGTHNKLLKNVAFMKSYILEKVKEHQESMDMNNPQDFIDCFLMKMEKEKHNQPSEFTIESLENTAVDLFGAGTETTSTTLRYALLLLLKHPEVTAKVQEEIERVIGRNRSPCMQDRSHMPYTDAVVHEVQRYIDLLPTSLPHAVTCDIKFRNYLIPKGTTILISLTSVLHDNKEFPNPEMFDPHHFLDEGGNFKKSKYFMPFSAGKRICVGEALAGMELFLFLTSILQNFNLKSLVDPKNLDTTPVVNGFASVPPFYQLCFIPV

[4] = tested on: P. falciparum TM90C2A (CQ-R); assay: In vitro antimalarial activity, [3H]-hypoxanthine incorporation (LSHTM); format: cell-based; details: Plasmodium falciparum, 72 h, [3H]-hypoxanthine incorporation, mean of 3 experiments, read-out: P. falciparum IC50 nM, TM90C2A (CQ-R)
[5] = tested on: P. yoelii NS; assay: Four-day suppressive Peters' test, oral; format: in vivo, P. yoelii in CD1 mice; details: once a day for 4 days, parasitemia day 4, CD1 mice
Description: Groups of five CD1 mice were inoculated i.v., with 4 × 10^6 infected erythrocytes/mice. Compounds, dissolved in standard suspending formula (SSV) (0.5% sodium carboxymethylcellulose, 0.5% benzyl alcohol, 0.4% Tween 80, and 0.9% NaCl), were administered once a day for 4 days via oral gavage, starting two hours post-infection. […] Parasitemia was evaluated using microscopic examination of Giemsa-stained blood films taken on day four, processed using MICROSOFT® EXCEL spreadsheets (Microsoft Corp., Redmond, WA, USA), and expressed as percentages of inhibition from the arithmetic mean parasitemia of each group in relation to the untreated group. ED50 and ED90 values were calculated using GraphPad Prism 6 (GraphPad Software Inc., La Jolla, CA, USA).

[6] = tested on: P. falciparum 3D7 (CQ-S); assay: In vitro antimalarial activity, [3H]-hypoxanthine incorporation (LSHTM); format: cell-based; details: Plasmodium falciparum, 3D7; 72 h, [3H]-hypoxanthine incorporation, mean of 3 experiments; read-out: P. falciparum IC50 nM, 3D7 (CQ-S)
[7] = in vivo; design: species or system male Sprague Dawley rats; details: male, Sprague Dawley, rat
Description: The formulations were prepared on the days of dosing, immediately before administration. MG3 for IV administration was formulated as in situ dimesylate salt, in 5% of glucose solution (4 mg/mL nominal concentration), while for oral administration it was prepared by suspending the test item in 0.5% methocel solution (v/v) (6 mg/mL nominal concentration). […] After 5-days postoperative recovery period, MG3 was administered and serial blood samples (about 0.3 mL) were collected from femoral vein using heparinized syringe at 5, 15, and 30 min, 1, 3, 6, 24-, 48-, 72- and 96-hours post-dosing after IV administration and at 15, and 30 min, 1, 3, 6 and 24-, 48-, 72- and 96-hours post-dosing after oral administration. The samples were then transferred into pre-cooled tubes protected from light and centrifuged at 3000 rpm for 4 min at +4 °C to collect plasma, and single aliquots of plasma were stored at −80 °C until analysis. Sample analysis: 400 µL of methanol was added to 10 µL of plasma in a 96-well plate; after centrifugation for 15 min at 2000 rpm at 6 °C, an aliquot of 360 µL of supernatant was transferred into a new 96-well plate and dried at 40 °C. Sample extracts were reconstituted with a volume of 150 µL of a mixture solution of 10 mM ammonium formate pH 3.5:methanol (90:10; v/v) and centrifuged for 3 min at 2000 rpm at 6 °C and the supernatant was injected onto the LC-MS/MS system. A HP1100 HPLC with a Synergy 4 um Hydro-RP 80A 2.0 × 50 mm column, coupled with AB/MDS Sciex 4000 QTrap in positive ion mode was utilized for analysis; 10 µL samples were injected, a gradient with 10 mM ammonium formate pH 3.5 and methanol was utilized. Data obtained were analyzed using the non-compartmental approach (Watson package v. 6.4.0.04, Thermo Fisher Scientific, Waltham, MA, USA).

[8] = tested on: P. falciparum field isolates; assay: Chemosensitivity assay on field isolates; format: cell-based
Description: (§1) The 10 P. vivax and 10 P. falciparum isolates used in this study were obtained from Mae Sod District, Tak Province, Thailand. […] Isolates were collected in 5 mL lithium-heparinized tubes and sent to the laboratory within 5–6 h.

[9] = tested on: P. vivax field isolates; assay: Chemosensitivity assay on field isolates; format: cell-based
Description: as §1

## Clc1ccc2c(NCC34CCCN3CCC4)ccnc2c1 [MG3, 7-Chloro-N-((hexahydro-1H-pyrrolizin-7a-yl)methyl)quinolin-4-amine]
[1]; Plasmodium falciparum, 72 h, read-out: P. falciparum IC50 nM, IPC5202 (ARM-R), 72 h incubation, pLDH method
  IC50: < 15 nM
[1]; read-out: P. falciparum IC50 nM, IPC5202 (ARM-R), 72 h incubation, pLDH method
  IC50: 10 nM and 10.7 nM
[2]
  IC50: 25.7 nM
[3]
  inhibition at 3 µM: 8.8 ± 2.2%
[4]
  IC50: 14.4 nM
[5]; Plasmodium yoelii, 96 h, read-out: ED50 (95% CI) Mean
  ED50: 5.01 mg/kg
[5]
  ED90 (95% CI) Mean: 8.98 (6.70–12.02) mg/kg
[6]
  IC50: 12.6 nM
[7]; iv, 10 mg/kg
  AUC(0-inf): 1300 ± 223 ng·h/mL
  AUC(0-t): 1290 ± 217 ng·h/mL
  Cmax: 395 ± 118 ng/mL
  Vd: 59.9 L/kg
  clearance: 139 ± 20.2 mL/min/kg
  half-life: 7.7 ± 0.6 h
  tlast: 48.0 ± 0.1 h
[7]; po, 30 mg/kg
  AUC(0-inf): 4400 ± 633 ng·h/mL
  AUC(0-t): 4360 ± 630 ng·h/mL
  Cmax: 213 ± 23.7 ng/mL
  half-life: 10.7 ± 1.2 h
  still detectable in the plasma up to: 72 to 96 h
  tlast: 80.0 ± 13.9 h
[8]; Plasmodium falciparum, read-out: P. falciparum IC50 nM, Field Isolates, mean of 10 field isolates, Thai Burmese Border
  IC50: < 15 nM
[8]; read-out: P. falciparum IC50 nM, Field Isolates, mean of 10 field isolates, Thai Burmese Border
  IC50: 20.9 nM
[9]; P. vivax isolates
  IC50 lower than that of CQ: 40%
[9]; Plasmodium vivax, read-out: P. vivax IC50 nM, Field Isolates
  IC50: 50.3 nM

Reference: PMC10216263, “Favorable Preclinical Pharmacological Profile of a Novel Antimalarial Pyrrolizidinylmethyl Derivative of 4-amino-7-chloroquinoline with Potent In Vitro and In Vivo Activities” (Biomolecules, 2023)
